Measurements reported in ChEMBL document CHEMBL3508140 (2016).

Legend:
[1] = Plasma clearance of epirubicin following intravenous epirubicin at 20 mg.m-2 dose in cancer patients; format: ADME, organism-based; details: human, in vivo
[2] = Terminal half-life of 4'-epiadriamycin following intravenous 4'-epiadriamycin at 1.27 mg.Kg-1 dose in dog; format: ADME, organism-based, Canis lupus familiaris; details: Beagle, plasma
[3] = Half-life of terminal elimination phase of epirubicin following intravenous epirubicin at 40-135 mg.m-2 dose in cancer patients; format: ADME, organism-based; details: human, plasma
[4] = Plasma clearance of epirubicin following intravenous epirubicin at 1 mg.Kg-1 dose in rabbit; format: ADME, organism-based, Oryctolagus cuniculus; details: both, New Zealand White
[5] = Detection of epirubicin in plasma following single intravenous epirubicin at 10 mg.Kg-1 dose in female mouse bearing colon tumor; format: ADME, organism-based, BALB/c; details: in vivo
[6] = Volume of distribution of epirubicin following intravenous epirubicin at 3 mg.Kg-1 dose in rabbit; format: ADME, organism-based, Oryctolagus cuniculus; details: both, New Zealand White, plasma
[7] = Terminal half-life of epirubicin following intravenous epirubicin solution at 1 mg.Kg-1 dose in rabbit; format: ADME, organism-based, Oryctolagus cuniculus; details: both, New Zealand White, blood
[8] = Mean plasma clearance of epirubicin following intravenous epirubicin at 150 mg.m-2 dose in advanced cancer patients; format: ADME, organism-based; details: human, read-out: CLp (converted)
[9] = Intermediate phase half-life of epirubicin following intravenous epirubicin at 75-90 mg.m-2 dose in cancer patients; format: ADME, organism-based, Plasma; details: human, in vivo
[10] = Volume of distribution as steady state of epirubicin following intravenous epirubicin at 60 mg.m-2 dose in cancer patients; format: ADME, organism-based, Plasma; details: human, in vivo
[11] = AUC values (0-48 h) of epirubicin in plasma following single intravenous epirubicin at 10 mg.Kg-1 dose in female mouse bearing colon tumor; format: ADME, organism-based, BALB/c; details: in vivo
[12] = Plasma clearance of epirubicin following intravenous epirubicin solution at 1 mg.Kg-1 dose in rabbit; format: ADME, organism-based, Oryctolagus cuniculus, Blood; details: both, New Zealand White
[13] = Intermediate phase half-life of epirubicin following intravenous epirubicin at 70 mg.m-2 dose in cancer patients; format: ADME, organism-based, Plasma; details: human, in vivo
[14] = Intermediate phase half-life of epirubicin following intravenous epirubicin at 40-60 mg.m-2 dose in cancer patients; format: ADME, organism-based, Plasma; details: human, in vivo
[15] = AUC of epirubicin following intravenous epirubicin solution at 1 mg.Kg-1 dose in rabbit; format: ADME, organism-based, Oryctolagus cuniculus; details: both, New Zealand White, blood
[16] = Half-life of terminal elimination phase of epirubicin following intravenous epirubicin at 20 mg.m-2 dose in cancer patients; format: ADME, organism-based; details: human, plasma
[17] = Terminal half-life of epirubicin following intravenous epirubicin at 1 mg.Kg-1 dose in rabbit; format: ADME, organism-based, Oryctolagus cuniculus; details: both, New Zealand White, plasma
[18] = Volume of distribution of 4'-epiadriamycin intravenous 4'-epiadriamycin at 1.27 mg.Kg-1 dose in dog; format: ADME, organism-based, Canis lupus familiaris; details: Beagle, plasma
[19] = Plasma clearance of epirubicin following intrahepatic epirubicin emulsion at 1 mg.Kg-1 dose in rabbit; format: ADME, organism-based, Oryctolagus cuniculus, Blood; details: both, New Zealand White
[20] = Elimination of epirubicin following epirubicin at 60 mg.m-2 dose in cancer patients; format: ADME, organism-based, Plasma; details: human, in vivo, iv
[21] = Increase in serum triglycerides level following reference intravenous epirubicin at 1 mg.Kg-1 per week in rat; format: toxicity, organism-based, SD; details: in vivo
[22] = Plasma clearance of epirubicin following intravenous epirubicin at 30-90 mg.m-2 dose in cancer patients; format: ADME, organism-based; details: human, in vivo
[23] = Volume of distribution as steady state of epirubicin following intravenous epirubicin at 75-90 mg.m-2 dose in cancer patients; format: ADME, organism-based, Plasma; details: human, in vivo
[24] = Half-life of terminal elimination phase of epirubicin following intravenous epirubicin at 75 mg.m-2 dose in cancer patients; format: ADME, organism-based; details: human, plasma
[25] = Half-life of terminal elimination phase of epirubicin following intravenous epirubicin at 60-90 mg.m-2 dose in cancer patients; format: ADME, organism-based; details: human, plasma
[26] = AUC of epirubicin following intravenous epirubicin at 1 mg.Kg-1 dose in rabbit; format: ADME, organism-based, Oryctolagus cuniculus; details: both, New Zealand White, plasma
[27] = (§1) Urinary elimination of 4'-epiadriamycin following intravenous bolus 4'-epiadriamycin at 10 mg.Kg-1 dose in rat; format: ADME, organism-based; details: SD, urine, read-out: Compound recovery
[28] = Volume of distribution of epirubicin following intravenous epirubicin solution at 1 mg.Kg-1 dose in rabbit; format: ADME, organism-based, Oryctolagus cuniculus; details: both, New Zealand White, blood
[29] = Volume of distribution as steady state of epirubicin following intravenous epirubicin at 40-135 mg.m-2 dose in cancer patients; format: ADME, organism-based, Plasma; details: human, in vivo
[30] = as §1; format: ADME, organism-based; details: SD, urine, read-out: Compound recovery; remark: listed apart in the source
[31] = Incidence of leukocyturia following reference intravenous epirubicin at 1 mg.Kg-1 per week in rat; format: toxicity, organism-based, SD; details: in vivo
[32] = Initial phase half-life of epirubicin following intravenous epirubicin at 75 mg.m-2 dose in cancer patients; format: ADME, organism-based, Plasma; details: human, in vivo
[33] = Initial phase half-life of epirubicin following intravenous epirubicin at 90-150 mg.m-2 dose in cancer patients; format: ADME, organism-based, Plasma; details: human, in vivo
[34] = AUC of epirubicin following intravenous epirubicin at 3 mg.Kg-1 dose in rabbit; format: ADME, organism-based, Oryctolagus cuniculus; details: both, New Zealand White, plasma
[35] = Plasma clearance of epirubicin following intravenous epirubicin at 40-60 mg.m-2 dose in cancer patients; format: ADME, organism-based; details: human, in vivo
[36] = Percentage of epirubicin excreted unchanged in urine following epirubicin at 60 mg.m-2 dose in cancer patients; format: ADME, organism-based; details: human, at 60 mg/m2, read-out: Compound recovery
[37] = Plasma clearance of epirubicin following intrahepatic epirubicin solution at 1 mg.Kg-1 dose in rabbit; format: ADME, organism-based, Oryctolagus cuniculus, Blood; details: both, New Zealand White
[38] = Mortality occurred following reference intravenous epirubicin at 1 mg.Kg-1 per week in rat; format: toxicity, organism-based, SD; details: in vivo
[39] = Terminal elimination of metabolite of epirubicin following intravenous epirubicin at 40-60 mg.m-2 dose in cancer patients; format: ADME, organism-based, Plasma; details: human, in vivo
[40] = Half-life of terminal elimination phase of epirubicin following intravenous epirubicin at 50 mg.m-2 dose in cancer patients; format: ADME, organism-based; details: human, plasma
[41] = Volume of distribution of epirubicin following intrahepatic epirubicin solution at 1 mg.Kg-1 dose in rabbit; format: ADME, organism-based, Oryctolagus cuniculus; details: both, New Zealand White, blood
[42] = Recovery of epirubicin following intravenous epirubicin at 1.5 mg.Kg-1 dose in man; format: ADME, organism-based, Plasma; details: human, in vivo
[43] = Plasma clearance of epirubicin following intravenous epirubicin at 60-90 mg.m-2 dose in cancer patients; format: ADME, organism-based; details: human, in vivo
[44] = Cumulative urinary excretion of epirubicin and its metabolites following epirubicin at 60-150 mg.m-2 dose in cancer patients; format: ADME, organism-based, Urine; details: human, in vivo
[45] = Initial phase half-life of epirubicin following intravenous epirubicin at 25-35 mg.m-2 dose in cancer patients; format: ADME, organism-based, Plasma; details: human, in vivo
[46] = Plasma clearance of epirubicin following intravenous epirubicin emulsion at 1 mg.Kg-1 dose in rabbit; format: ADME, organism-based, Oryctolagus cuniculus, Blood; details: both, New Zealand White
[47] = Half-life of epirubicin in tumor following single intravenous epirubicin at 10 mg.Kg-1 dose in female mouse bearing colon tumor; format: ADME, organism-based, Neoplasm; details: BALB/c
[48] = Volume of distribution as steady state of epirubicin following intravenous epirubicin at 50 mg.m-2 dose in cancer patients; format: ADME, organism-based, Plasma; details: human, in vivo
[49] = biological target: Albumin (Homo sapiens, UniProt P02768); experiment: Binding of epirubicin to albumin; format: cell-free; details: read-out: Plasma protein binding (converted)
Sequence of Albumin (P02768 whole entry): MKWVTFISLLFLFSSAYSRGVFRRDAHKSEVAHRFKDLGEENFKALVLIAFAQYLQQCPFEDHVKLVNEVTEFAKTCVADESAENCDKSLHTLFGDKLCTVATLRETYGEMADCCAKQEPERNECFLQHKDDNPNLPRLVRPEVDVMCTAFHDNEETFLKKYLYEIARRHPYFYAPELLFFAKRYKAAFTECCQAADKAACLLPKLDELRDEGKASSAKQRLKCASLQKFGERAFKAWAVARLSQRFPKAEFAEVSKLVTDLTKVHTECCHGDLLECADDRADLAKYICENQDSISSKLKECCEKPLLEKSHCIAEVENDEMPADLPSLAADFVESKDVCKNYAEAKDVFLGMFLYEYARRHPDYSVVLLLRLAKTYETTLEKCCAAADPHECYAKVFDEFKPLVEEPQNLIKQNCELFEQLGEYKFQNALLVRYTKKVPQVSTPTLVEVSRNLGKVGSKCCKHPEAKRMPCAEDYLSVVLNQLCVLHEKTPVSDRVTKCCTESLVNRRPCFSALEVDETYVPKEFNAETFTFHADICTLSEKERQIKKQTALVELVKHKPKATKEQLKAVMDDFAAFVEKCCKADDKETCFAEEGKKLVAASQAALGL

[50] = Terminal half-life of epirubicin following intravenous epirubicin at 3 mg.Kg-1 dose in rabbit; format: ADME, organism-based, Oryctolagus cuniculus; details: both, New Zealand White, plasma
[51] = Volume of distribution as steady state of epirubicin following intravenous epirubicin at 75 mg.m-2 dose in cancer patients; format: ADME, organism-based, Plasma; details: human, in vivo
[52] = Recovery of epirubicin following intraperitoneal epirubicin at 4 mg.Kg-1 dose in mouse; format: ADME, organism-based, CD-1, Plasma; details: in vivo, ip
[53] = Plasma clearance of epirubicin following intravenous epirubicin at 3 mg.Kg-1 dose in rabbit; format: ADME, organism-based, Oryctolagus cuniculus; details: both, New Zealand White

In the case of `COc1cccc2c1C(=O)c1c(O)c3c(c(O)c1C2=O)C[C@@](O)(C(=O)CO)C[C@@H]3O[C@H]1C[C@H](N)[C@@H](O)[C@H](C)O1.Cl` [EPIRUBICIN HYDROCHLORIDE], the CLp [1] is reported as 71.5 L.h-1.m-2, the half-life [2] is reported as 7.1 min and the half-life [3] is reported as 20.6 h. The clearance [4] was 196 mL/min, the Compound recovery [5] was “OUTCOME = Observed” and the Vd [6] was 587 L/kg. For the same compound, the half-life [7] was 1.06 h, the clearance [8] was 1130 mL/min and the t1/2 [9] was 2.6 h. The Vss [10] was 1272 L.m-2, the AUC [11] was 179 nmol·min/mL and the clearance [12] was 813 mL/min. The t1/2 [13] was 1.25 h, the t1/2 [14] was 0.49 h and the AUC [15] was 180 ng·h/mL. The half-life [16] was 13.9 h, the half-life [17] was 22.9 h and the Vd [18] was 71.9 L/kg. For the same compound, the CL/F [19] was 3780 mL/min, the Elimination [20] was “OUTCOME = Observed” and the TRIG_CHANGE [21] was “OUTCOME = Increased”. For the same compound, the CLp [22] was 48 L.h-1.m-2, the Vss [23] was 1432 L.m-2 and the half-life [24] was 44.8 h. The half-life [25] was 40 h, the AUC [26] was 420 ng·h/mL and the dose excreted [27] was 2.43%. The Vd [28] was 30.9 L/kg, the Vss [29] was 836 L.m-2 and the dose excreted [30] was 3.9%. For the same compound, the Incidence [31] was “OUTCOME = Observed”, the t1/2 [32] was 5.4 min and the t1/2 [33] was 0.167 h. The AUC [34] was 620 ng·h/mL, the CLp [35] was 50.1 L.h-1.m-2 and the dose excreted at 7 Day [36] was 6.4%. The CL/F [37] was 2700 mL/min, the Mortality [38] was “OUTCOME = Observed, N_AFFECTED = 5” and the t1/2 [39] was 31.5 h. For the same compound, the half-life [40] was 18.3 h, the Vd [41] was 129 L/kg and the Compound recovery [42] was 46 10^-9M. It also gave a CLp [43] of 30.5 L.h-1.m-2, a Radiolabel recovery [44] of 5.9% and a t1/2 [45] of 2.53 min. For the same compound, the clearance [46] was 1560 mL/min, the half-life [47] was 24.7 h and the Vss [48] was 583 L.m-2. It also gave a fraction unbound [49] of 0.43, a half-life [50] of 21.3 h and a Vss [51] of 2964 L.m-2. For the same compound, the Compound recovery [52] was 49 10^-9M and the clearance [53] was 323 mL/min.
